Laboratory results reported in US8395037B2, “Pharmaceutical compositions for treating/preventing motor organ diseases” (Mitsubishi Corporation, priority 2005, dated 2013).

Key:
MMP-3 [1] = test: MMP-3 concentration in synovial fluid of osteoarthritis model knee joints (ELISA); type: in vivo, rabbit; details: various concentrations, sequential measurement, versus control knees
Method: Sequential biochemical examinations of blood and synovial fluid were also performed (pre-administration and fourth- and eighth-week post-administration of water-solubilized fullerene). The observed biochemical examination items were (A) hepatic function (GOT and GPT), renal function (urea nitrogen and creatinine), and electrolytes (Na, K, and Cl), (B) extracellular matrix-degrading enzyme production ability (MMP-1, 3, and 13), and (C) cartilage matrix-synthesizing ability (proteoglycan). The items of (A) were measured by commercially available testing equipments and items of (B) and (C) were measured by ELISA method.

MMP-13 = MMP-13 production in cultured chondrocytes treated with cartilage degenerating factor (ELISA); type: cell-based, human; details: for Production of MMP-13: IL-1β or H2O2 treated chondrocytes, 50 or 100 μM, 24 h
Method: (§1) Chondrocytes isolated from human articular cartilage tissues were used for cultured cells. After obtaining informed consent, cartilage tissues were collected from surgically-removed tissues from eight osteoarthritis patients. The collected tissues were sliced and then treated in a liquid low-glucose Dulbecco's modified Eagle's medium (DMEM, manufactured by Gibco Co.) containing 1.5 mg/ml collagenase B at 37° C. overnight, to isolate chondrocytes for culture. The cells were normally cultured in a culture flask (culture area: 25 cm^2), and in a polystyrene culture dish (diameter: 6 cm) for use in the experiments. […]
(§2) Influence of hydroxylated C60 fullerene on cartilage matrix-degrading enzyme production which is enhanced by cartilage catabolism inducers was analyzed using the enzyme-linked immunoassay (ELISA) method.
(§3) Chondrocytes that had been isolated and cultured by the above method (1) were subjected to two passage cultures. […] After a 24 hour incubation, the culture supernatant was collected, and the concentrations of cartilage matrix-degrading enzymes, matrix metalloprotease (MMP)-1, 3, and 13, were measured.
(§4) The concentrations of MMP-1, MMP-3, and MMP-13 in the culture supernatant were determined using ELISA kits (kits for MMP-1 and MMP-3, manufactured by R&D Co.; and a kit for MMP-13, manufactured by Amersham), which is the standard technique currently known in the art. […] 100 μl of 1.5 N H3PO4 was added to each well to stop the color reaction, and the absorbance at 450 nm was measured using a microtiter plate reader. According to the instructions provided by the manufacturer, the measured concentrations were calibrated using a lyophilized control reagent.

[2] = tested on: osteoarthritis patient-derived chondrocytes; test: Cytotoxicity test (XTT method) on chondrocytes; type: cell-based, human; details: for Cell survival rate (%): relative to control (medium alone) = 100%
Method: Chondrocytes isolated from human articular cartilage tissues were used for cultured cells. After obtaining informed consent, cartilage tissues were collected from surgically-removed tissues from eight osteoarthritis patients. The collected tissues were sliced and then treated in a liquid low-glucose Dulbecco's modified Eagle's medium (DMEM, manufactured by Gibco Co.) containing 1.5 mg/ml collagenase B at 37° C. overnight, to isolate chondrocytes for culture. The cells were normally cultured in a culture flask (culture area: 25 cm^2), and in a polystyrene culture dish (diameter: 6 cm) for use in the experiments. The cell culture was performed using a DMEM medium added with inactivated fetal bovine serum (FBS, manufactured by TRACE Co.) at 10% volume of the medium, and also 2 mM L-glutamine, 25 mM HEPES, and penicillin and streptomycin at 100 units/ml, in either a CO2 incubator (normoxic condition) which was set at 5% CO2+95% air, or a low oxygen chamber (hypoxic condition) which was set at 1% O2+5% CO2+94% N2, at 37° C. under saturated humidity.
Influence of hydroxylated C60 fullerene on the survival rate of chondrocytes was evaluated by a cytotoxicity test (XTT method). Hydroxylated C60 fullerene (manufactured by Frontier Carbon Co.) was dissolved in polyethylene glycol to prepare a 10 mM stock, which was then stored in a dark place at −20° C. The concentration of hydroxylated C60 fullerene for the test was 1.0 μM, 10.0 μM, and 100.0 μM.
50 μl each of chondrocytes in the logarithmic growth phase were added into a 96-well microplate at the concentration of 5.0×10^5 cells/ml, and incubated in either a CO2 incubator (normoxic condition) or a low oxygen chamber (hypoxic condition) for 24 hours. Hydroxylated C60 fullerene was added into the 96-well microplate at each target concentration described above (final volume: 100 μl), and the cells were incubated for 48 hours or 96 hours. Then, the medium was replaced to remove hydroxylated C60 fullerene, and the cells were incubated for another 12 hours. To stain surviving cells, 50 μl XTT (2,3bis(2-methoxy-4-nitro-5-sulfophenyl)-5-[(phenylamino)carbonyl]-2H-tetrazolium hydroxide, inner salt) reagent was added to each well, and the cells were incubated for four hours. Immediately thereafter, the absorbance at 450 nm was measured with a plate reader and the cell survival rates were analyzed. The results are shown as survival rates. The survival rate of the control group in a medium alone without hydroxylated C60 fullerene was assumed to be 100%, and the survival rate of the hydroxylated C60 fullerene-administered groups is expressed as relative values against the control group.

[3] = tested on: osteoarthritis model rabbits
Method: Osteoarthritis animal model was prepared according to a general method. NZW-strain male rabbits (2 to 2.5 kg, purchased from Kitayama Labes Co.) were habituated for about one week, and both knee joint sites were shaved and disinfected with an iodine antiseptic agent under anesthesia with a combined administration of ketamine hydrochloride and xylazine (intramuscular administration, or intravenous administration if the anesthetic effect was low). The epidermis inside the knee joints was incised to expose the anterior cruciate ligament and medial collateral ligament, which were then cut out. After confirming and incising the articular capsule, the medial meniscus was exposed and totally extracted. Tissues around the articular capsule, patellar tendon, and epidermis were sutured thereafter. At the time of suturing, the operated site was washed with a physiological salt solution containing an antibiotic (injectable Viccillin, Meiji Seika) (500 mg (titer) as ampicillin sodium/20.0 ml of physiological saline solution).
From the postoperative first week, 2.0 ml of a hydroxylated C60 fullerene solution (100 μM, adjusted with the solvent polyethylene glycol) was injected into the right knee joint cavity, and 2.0 ml of solvent alone was injected into the left knee joint cavity, using a 23-gauge injection needle intraarticularly twice a week. […] Thickness of the degenerated cartilage layer and the number of chondrocytes in the degenerated cartilage layer were measured. The thickness of the degenerated cartilage layer was expressed as a relative value assuming that the immediate postoperative thickness (zeroth week) was 100%.
Moreover, proteoglycan content decrease in articular cartilage involved with cartilage degeneration was evaluated by safranin O staining. The evaluation result was expressed as an area ratio (%) to immediate postoperative proteoglycan-stained area.

MMP-3 [4] = test: MMP-3 production in cultured chondrocytes treated with cartilage degenerating factor (ELISA); type: cell-based, human; details: for Production of MMP-3: IL-1β or H2O2 treated chondrocytes, 50 or 100 μM, 24 h
Method: as §1, §2, §3, §4

With hydroxylated C60 fullerene the “MMP-3 concentration in synovial fluid” value (MMP-3 [1]) was “No remarkable difference”, the “Production of MMP-13” value (MMP-13) was “inhibited in all cases” and the “Production of MMP-13” value (MMP-13; listed as fullerene) was “decreased the amount of MMP-13 produced”. For the same substance, the “Inhibitory effect on production of MMP-13” value (MMP-13; hypoxic condition) was “also observed”, the “Cell survival rate (%)” value ([2]; 1.0 μM, 48 hour incubation) was 98.5 ± 6.5% and the “Cell survival rate (%)” value ([2]; 1.0 μM, 96 hour incubation) was 99.6 ± 3.8%. The “Cell survival rate (%)” value ([2]; 10.0 μM, 48 hour incubation) was 101.3 ± 5.8%, the “Cell survival rate (%)” value ([2]; 10.0 μM, 96 hour incubation) was 98.2 ± 2.6% and the “Cell survival rate (%)” value ([2]; 100.0 μM, 48 hour incubation) was 99.5 ± 4.2%. The “Cell survival rate (%)” value ([2]; 100.0 μM, 96 hour incubation) was 103.4 ± 2.2%, the Toxicity to chondrocytes ([2]; 1.0-100.0 μM, 48 or 96 hours) was “not to be toxic to chondrocytes” and the “Chondrocytes and cartilage matrix, histology” value ([3]; 100 μM, 2.0 ml intraarticular twice a week, postoperative sixth and eighth week) was “histologically maintained”. For the same substance, the “Degeneration of the knee joint cartilage tissue” value ([3]; 100 μM, 2.0 ml intraarticular twice a week, versus solvent alone) was “mild”, the “Swelling/flare in articular local parts, influence on systemic condition” value ([3]; rabbit, in vivo) was “neither swelling/flare in articular local parts nor influence on systemic condition was observed” and the “Production of MMP-3” value (MMP-3 [4]) was “inhibited in all cases”. For the same substance, the “Production of MMP-3” value (MMP-3 [4]; listed as fullerene) was “decreased the amount of MMP-3 produced” and the “Inhibitory effect on production of MMP-3” value (MMP-3 [4]; hypoxic condition) was “also observed”.
